Test results published in publication PMC8556085, “Antimicrobial and Antioxidant Secondary Metabolites from Trifolium baccarinii Chiov. (Fabaceae) and Their Mechanisms of Antibacterial Action” (BioMed Research International, 2021).
Values after ≈ are worked out from the molar mass of the structure shown. Marks after values point to notes of the source that are not given here.

Assays:
[1] = test system: Candida albicans ATCC10231; test: Broth microdilution MIC/MMC; format: cell-based
Description: (§1) The antimicrobial activity was performed against five bacterial and two fungal species. The selected microorganisms were the Gram-positive (Staphylococcus aureus ATCC25923, methicillin-resistant Staphylococcus aureus 03 (MRSA03), and methicillin-resistant Staphylococcus aureus 04 (MRSA04)) and Gram-negative (Pseudomonas aeruginosa ATCC27853 and Escherichia coli S2(1)) bacteria and yeast strains of Candida albicans ATCC10231 and Cryptococcus neoformans H99. These microorganisms were taken from our laboratory collection. The fungal and bacterial strains were conserved on Sabouraud Dextrose Agar (SDA, Conda, Madrid, Spain) and nutrient agar (NA, Conda) slants, respectively.
(§2) The antimicrobial activity was investigated by determining the minimum inhibitory concentrations (MICs), minimum bactericidal concentrations (MBC), and minimum fungicidal concentrations (MFCs). MICs of extracts/compounds were monitored using the broth microdilution method. Dimethyl sulfoxide (DMSO, Fisher Chemicals) was used to dissolve the test sample to produce a stock solution that was twofold serially diluted in Mueller-Hinton broth (MHB) for bacteria and Sabouraud Dextrose Broth (SDB) for fungi to obtain a concentration range of 4096 to 0.25 μg/mL. One hundred microliters of each concentration was introduced into a well (96-well microplate) containing 90 μL of SDB or MHB and 10 μL of inoculum (at 1 × 10^6 CFU/mL for bacteria and 1 × 10^5 spores/mL for yeasts) which were added to obtain a final concentration range of 2048 to 0.125 μg/mL. Plates were covered and incubated on the shaker at 37°C, 30°C, and 30°C during 24 h, 48 h, and 72 h for bacteria, Candida albicans, and Cryptococcus neoformans, respectively. The MICs were visually assessed after the incubation period and were considered the lowest sample concentration that inhibits the growth or the visual growth of the organism.
(§3) The positive controls were oxacillin (Sigma-Aldrich, Steinheim, Germany) for bacteria and nystatin (Sigma-Aldrich, Steinheim, Germany) for yeasts, and the negative control was broth with 20 μL of DMSO. The assay was carried out in triplicate.

[2] = test system: Cryptococcus neoformans H99; test: Broth microdilution MIC/MMC; format: cell-based
Description: as §1, §2, §3

[3] = test system: Escherichia coli S2(1); test: Broth microdilution MIC/MMC; format: cell-based
Description: as §1, §2, §3

[4] = test system: Pseudomonas aeruginosa ATCC27853; test: Broth microdilution MIC/MMC; format: cell-based
Description: as §1, §2, §3

[5] = test system: Staphylococcus aureus ATCC25923; test: Broth microdilution MIC/MMC; format: cell-based
Description: as §1, §2, §3

[6] = test system: methicillin-resistant Staphylococcus aureus 03 (MRSA03); test: Broth microdilution MIC/MMC; format: cell-based
Description: as §1, §2, §3

[7] = test system: methicillin-resistant Staphylococcus aureus 04 (MRSA04); test: Broth microdilution MIC/MMC; format: cell-based
Description: as §1, §2, §3

[8] = test system: tested bacteria and yeasts; test: Broth microdilution MIC/MMC, summary over all strains; format: cell-based
Description: as §1, §2, §3

[9] = DPPH free radical scavenging assay; details: mean ± SD
Description: The free radical scavenging activity of extracts and compounds was evaluated according to the described method. The EC50 (μg/mL), which is the amount of sample necessary to inhibit by 50% the absorbance of free radical DPPH, was calculated. Vitamin C was used as a standard control. All the analyses were carried out in triplicate and repeated three times.

[10] = Gallic acid equivalent antioxidant capacity (GEAC) assay; details: ABTS radical, 420 nm, 240 s; mean ± SD
Description: The GEAC test was performed as described previously with some slight modifications. The laccase was purified from Sclerotinia sclerotiorum according to the described protocol. 20 μL of laccase (1 mM stock solution), 20 μL of test sample, 10 μL of ABTS (2,2′-azino-bis(3-ethylbenzothiazoline-6-sulfonic acid) (74 mM stock solution), and 950 μL of acetate buffer (pH = 5.0, 100 mM) were added in a quartz cuvette. The concentrations of the samples in the assay mixture were 800, 400, 200, 100, and 10 μg/mL for the extracts and 200, 100, 50, 25, and 12.5 μg/mL for the isolated compounds. The content of the generated ABTS^●+ radical was measured at 420 nm after 240 s reaction time and was converted to gallic acid equivalents by the use of a calibration curve (Pearson's correlation coefficient: r = 0.998) constructed with 0, 4, 10, 14, 28, 56, and 84 μM gallic acid standards rather than Trolox. Experiments were done in triplicate and repeated three times with similar results.

[11] = test system: Gram-positive (S. aureus, S. epidermidis) and Gram-negative (P. aeruginosa) bacteria; parameters: method as in PMID 26887239; details: cited from earlier work
[12] = test system: yeasts (C. albicans, C. tropicalis, and C. neoformans); parameters: method as in PMID 26887239; details: cited from earlier work
[13] = parameters: method as in doi:10.22159/ijpps.2017v9i2.13964; details: cited from earlier work
[14] = parameters: method as in doi:10.22159/ijpps.2017v9i2.13964; details: cited from earlier work; remark: listed apart in the source
[15] = parameters: method as in doi:10.22159/ijpps.2017v9i2.13964; details: cited from earlier work; remark: listed apart in the source
[16] = parameters: method as in doi:10.22159/ijpps.2017v9i2.13964; details: cited from earlier work; remark: listed apart in the source
[17] = parameters: method as in doi:10.22159/ijpps.2017v9i2.13964; details: cited from earlier work; remark: listed apart in the source
[18] = Pseudomonas aeruginosa ATCC27853
[19] = Staphylococcus aureus ATCC25923

COc1ccc(-c2coc3cc(O)ccc3c2=O)cc1 [compound 2, formononetin]
MFC ([1]; Candida albicans ATCC10231): 128 mg/L (≈ 477 µM)
MMC/MIC ([1]; Candida albicans ATCC10231): 2
MIC ([1]; Candida albicans ATCC10231, 48 h, 30°C, read-out: MIC): 64 mg/L (≈ 239 µM)
MFC ([2]; Cryptococcus neoformans H99): 64 mg/L (≈ 239 µM)
MMC/MIC ([2]; Cryptococcus neoformans H99): 1
MIC ([2]; Cryptococcus neoformans H99, 72 h, 30°C, read-out: MIC): 64 mg/L (≈ 239 µM)
MBC [3]: 128 mg/L (≈ 477 µM)
MMC/MIC [3]: 2
MIC ([3]; 24 h, 37°C, read-out: MIC): 64 mg/L (≈ 239 µM)
MBC [4, 18]: 128 mg/L (≈ 477 µM)
MMC/MIC [4, 18]: 1
MIC ([4]; Pseudomonas aeruginosa ATCC27853, 24 h, 37°C, read-out: MIC): 128 mg/L (≈ 477 µM)
MBC [5, 19]: 128 mg/L (≈ 477 µM)
MMC/MIC [5, 19]: 2
MIC ([5]; Staphylococcus aureus ATCC25923, 24 h, 37°C, read-out: MIC): 64 mg/L (≈ 239 µM)
MMC/MIC ([6]; MRSA03): 2
MBC ([6]; Staphylococcus aureus, MRSA03): 256 mg/L (≈ 954 µM)
MIC ([6]; Staphylococcus aureus, MRSA03, 24 h, 37°C, read-out: MIC): 128 mg/L (≈ 477 µM)
MMC/MIC ([7]; MRSA04): 2
MBC ([7]; Staphylococcus aureus, MRSA04): 256 mg/L (≈ 954 µM)
MIC ([7]; Staphylococcus aureus, MRSA04, 24 h, 37°C, read-out: MIC): 128 mg/L (≈ 477 µM)
antimicrobial activity class of pure compounds by cutoff points ([8]; against specific microorganism, cutoff points of ref 33): moderate/low
MIC ([8]; read-out: MIC (range over the tested microorganisms)): 64 to 128 mg/L (≈ 239 to 477 µM)
DPPH free radical scavenging activity (EC50) [9]: 6.39 ± 0.62^e μg/mL
Gallic acid equivalent antioxidant capacity (GEAC) [10]: 77.91 ± 0.59^e μg/mL
minimum inhibitory concentration [11]: 200 mg/L (≈ 746 µM)
minimum inhibitory concentration [12]: 25 mg/L (≈ 93.2 µM)
IC50 against DPPH [13]: 4.65 mg/L (≈ 17.3 µM)
IC50 against hydroxyl radical [14]: 9.48 mg/L (≈ 35.3 µM)
IC50 against hydrogen peroxide [15]: 4.75 mg/L (≈ 17.7 µM)
IC50 against nitric oxide [16]: 5.0 mg/L (≈ 18.6 µM)
IC50 against superoxide radical [17]: 4.27 mg/L (≈ 15.9 µM)
